Where two headings read alike, the source gives them in different places.
Columns and labels:
p38α = p38α (Homo sapiens, UniProt Q16539); test: Ser/Thr kinase assay by MDS Pharma Services (Panlabs); type: biochemical
p110γ-PI3K = p110γ-PI3K (Homo sapiens, UniProt P48736); test: In vitro enzyme assay, p110γ recombinant protein (Biological Example 1); type: biochemical
Source text: Reactions were terminated and lipid products analysed as described above for the other PI 3-kinase isoforms assays.

PKA Non-selective = test: Ser/Thr kinase assay by MDS Pharma Services (Panlabs); type: biochemical
washed platelets [1] = test: Shear-induced platelet aggregation (cone & plate device, single platelet count); type: cell-based; details: 5 min, vWf 10 μg/ml, 5000 s^−1 for 5 min, read-out: inhibition of shear induced platelet aggregation, IC50
Source text: Platelet samples were aspirated and the level of platelet aggregation determined by analyzing the number of unincorporated single platelets using a […] hematology analyzer. All data were normalized to control experiments and expressed as the proportional increase relative to control samples.

PKC Non-selective = test: Ser/Thr kinase assay by MDS Pharma Services (Panlabs); type: biochemical
Cdk2/cyclin A = Cdk2/cyclin A (Homo sapiens, UniProt P24941); test: as above; type: biochemical
Casein Kinase 2 = Casein Kinase 2 (Homo sapiens, UniProt P68400); test: as above; type: biochemical
HER2 Receptor = HER2 Receptor (Homo sapiens, UniProt P04626); test: Tyrosine kinase assay by MDS Pharma Services (Panlabs); type: biochemical
PI4K = test: PI4 kinase assay, immunoprecipitated from platelet lysate; type: biochemical
Method: (§1) For each immunoprecipitation, 1 mg of lysate was incubated with an anti-p110α (1 μg), anti-p110β (1 μg), anti-p110δ (1 μg) or anti-PI4 kinase antibody (2-5 μg) and 50 μl of a 50% slurry of protein A beads overnight at 4° C. […] For PI4 kinase assays, protein A beads-immune complexes were also washed twice with lysis buffer, prior to two washes with 1× PI4 kinase assay buffer (20 mM Hepes, pH 7.5, 10 mM MgCl2, 0.3% Triton X-100) and the addition of other assay constituents, as described above. All reactions were terminated by the addition of 100 μl 1 M HCl, 200 μl choloroform/methanol (1:1) and 500 μl 2 M KCl and lipids extracted by centrifugation at 15,000×g for 2 minutes. The production of PI3 or PI4 kinase lipid products, PtdIns(3)P and PtdIns(4)P, were confirmed through TLC analysis. The lipid spots were then removed from the TLC plate and the level of radioactivity quantified to accurately determine the level of PtdIns(3)P/PtdIns(4)P production.

CaMK = test: Ser/Thr kinase assay by MDS Pharma Services (Panlabs); type: biochemical
p70^S6 = p70^S6 (Homo sapiens, UniProt P23443); test: as above; type: biochemical
rat tail bleeding time = test: Tail bleeding studies in rats; type: in vivo
Method: Rats were anaesthetised with halothane in room air supplemented with O2. Tail bleeding time was measured 15 min before drug administration (−15), and 5 and 30 min after administration. For experiments involving pretreatment with aspirin and clopidogrel, tail bleeding time was also measured before the first gavage dose at −25 h. Incisions 5 mm long and 1 mm deep were made in the tail at each time point and bleeding was monitored every 30 sec until it had ceased (=tail bleeding time).

Insulin Receptor = Insulin Receptor (Homo sapiens, UniProt P06213); test: Tyrosine kinase assay by MDS Pharma Services (Panlabs); type: biochemical
ERK1 = ERK1 (Homo sapiens, UniProt P27361); test: Ser/Thr kinase assay by MDS Pharma Services (Panlabs); type: biochemical
EGF Receptor = EGF Receptor (Homo sapiens, UniProt P00533); test: Tyrosine kinase assay by MDS Pharma Services (Panlabs); type: biochemical
[2] = system: platelets on immobilized vWf; test: In vitro flow studies: platelet calcium flux and adhesion on immobilized vWf; type: cell-based
Method: The use of an in vitro-flow based adhesion assay enables us to simultaneously analyze platelet adhesion dynamics and activation (by monitoring cytosolic calcium flux) on immobilized von Willebrand factor (vWf). Briefly, isolated platelets are perfused through vWf (100 μg/ml) coated microcapillary tubes and analysis of cytosolic calcium flux conducted in real-time by confocal microscopy.
Washed platelets (1.5×10^9) suspended in PWB were incubated with the calcium indicator dyes, Oregon Green 488 BAPTA-1, AM (1 μM) and Fura Red, AM (1.25 μM), for 30 min at 37° C. Platelets were washed twice with PWB prior to being resuspended in Tyrode's buffer containing 1 mM calcium.
For static adhesion assays, platelets were allowed to settle on the surface of vWf-coated coverslips for 30 min at 37° C. For flow assays, platelets were either perfused over a vWf-coated microcapillary tube at a constant shear rate of 600, 1800 or 10,000 s^−1 or allowed to settle on the surface of a vWf-coated microcapillary tube prior to being accelerated through a shear gradient of 10,000 s^−1 over a 1 s interval. Real time platelet calcium flux in individual platelets was monitored at 1 s intervals over the 30 min incubation period or at 0.586 s intervals for up to 175 s for static and flow-based assays, respectively.

p110δ-PI3K = target: T1, p110δ-PI3K (Homo sapiens, UniProt O00329); test: In vitro enzyme assay, p110δ immunoprecipitated from platelet lysate (Biological Example 1); type: biochemical; details: read-out: IC50 (μM), p110δ-PI3K
T1 construct: from tissue; host or cells: washed platelets (lysate, immunoprecipitated with anti-p110δ antibody)
Method: as §1

washed platelets [3] = test: FACS analysis of integrin αIIbβ3 activation and P-selectin expression; type: cell-based; details: induced by thrombin, collagen and ADP; 0.5 μM TGX-221
Method: Agonists: Thrombin, 1 U/ml; ADP, […]; U46619, 1 μM; Soluble collagen 10 μg/ml.
Platelets were then stimulated with thrombin (1 U/ml), ADP ([…]), U46619 (1 μM) or collagen (10 μg/ml) for 20 min at room temperature prior to being fixed with 2% paraformaldehyde for 45 min at room temperature. Fixed platelets were washed twice with Tyrode's buffer, incubated with 1 μg/ml FITC-conjugated anti-mouse F(ab)2′ antibody for 15 min at room temperature, washed twice with Tyrode's buffer, resuspended to a final volume of 500 μl in Tyrode's buffer and analyzed by FACS.

Fyn = Fyn (Homo sapiens, UniProt P06241); test: Tyrosine kinase assay by MDS Pharma Services (Panlabs); type: biochemical

p110γ-PI3K, sequence (P48736 whole entry, canonical isoform): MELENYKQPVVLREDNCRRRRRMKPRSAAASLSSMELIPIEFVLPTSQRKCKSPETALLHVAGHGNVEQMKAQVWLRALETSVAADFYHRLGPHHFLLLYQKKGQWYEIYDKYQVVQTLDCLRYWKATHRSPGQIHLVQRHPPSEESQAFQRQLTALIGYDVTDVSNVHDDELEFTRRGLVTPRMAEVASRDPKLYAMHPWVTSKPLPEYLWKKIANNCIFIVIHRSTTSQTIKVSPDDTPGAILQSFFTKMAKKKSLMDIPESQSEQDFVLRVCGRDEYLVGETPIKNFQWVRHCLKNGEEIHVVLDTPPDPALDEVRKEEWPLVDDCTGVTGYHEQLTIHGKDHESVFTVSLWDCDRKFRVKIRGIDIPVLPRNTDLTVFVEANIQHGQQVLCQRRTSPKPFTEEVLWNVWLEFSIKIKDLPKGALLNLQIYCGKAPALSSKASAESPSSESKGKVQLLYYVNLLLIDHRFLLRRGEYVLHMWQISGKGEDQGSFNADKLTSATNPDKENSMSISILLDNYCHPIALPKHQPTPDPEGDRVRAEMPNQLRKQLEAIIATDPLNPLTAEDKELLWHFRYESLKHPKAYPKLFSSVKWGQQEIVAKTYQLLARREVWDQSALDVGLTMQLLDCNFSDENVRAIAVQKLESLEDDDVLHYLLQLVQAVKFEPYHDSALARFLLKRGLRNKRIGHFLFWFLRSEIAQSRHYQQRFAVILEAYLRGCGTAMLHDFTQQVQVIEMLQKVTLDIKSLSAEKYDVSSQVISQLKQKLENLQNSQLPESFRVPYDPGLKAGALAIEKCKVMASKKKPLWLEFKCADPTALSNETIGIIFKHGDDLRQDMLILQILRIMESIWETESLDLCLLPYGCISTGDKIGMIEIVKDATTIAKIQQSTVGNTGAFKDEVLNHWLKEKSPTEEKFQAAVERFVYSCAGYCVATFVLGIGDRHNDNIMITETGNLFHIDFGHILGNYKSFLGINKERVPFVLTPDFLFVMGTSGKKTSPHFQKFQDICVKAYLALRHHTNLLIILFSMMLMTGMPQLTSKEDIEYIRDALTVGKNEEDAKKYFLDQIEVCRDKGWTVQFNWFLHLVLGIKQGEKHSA
HER2 Receptor, sequence (P04626 23-1255): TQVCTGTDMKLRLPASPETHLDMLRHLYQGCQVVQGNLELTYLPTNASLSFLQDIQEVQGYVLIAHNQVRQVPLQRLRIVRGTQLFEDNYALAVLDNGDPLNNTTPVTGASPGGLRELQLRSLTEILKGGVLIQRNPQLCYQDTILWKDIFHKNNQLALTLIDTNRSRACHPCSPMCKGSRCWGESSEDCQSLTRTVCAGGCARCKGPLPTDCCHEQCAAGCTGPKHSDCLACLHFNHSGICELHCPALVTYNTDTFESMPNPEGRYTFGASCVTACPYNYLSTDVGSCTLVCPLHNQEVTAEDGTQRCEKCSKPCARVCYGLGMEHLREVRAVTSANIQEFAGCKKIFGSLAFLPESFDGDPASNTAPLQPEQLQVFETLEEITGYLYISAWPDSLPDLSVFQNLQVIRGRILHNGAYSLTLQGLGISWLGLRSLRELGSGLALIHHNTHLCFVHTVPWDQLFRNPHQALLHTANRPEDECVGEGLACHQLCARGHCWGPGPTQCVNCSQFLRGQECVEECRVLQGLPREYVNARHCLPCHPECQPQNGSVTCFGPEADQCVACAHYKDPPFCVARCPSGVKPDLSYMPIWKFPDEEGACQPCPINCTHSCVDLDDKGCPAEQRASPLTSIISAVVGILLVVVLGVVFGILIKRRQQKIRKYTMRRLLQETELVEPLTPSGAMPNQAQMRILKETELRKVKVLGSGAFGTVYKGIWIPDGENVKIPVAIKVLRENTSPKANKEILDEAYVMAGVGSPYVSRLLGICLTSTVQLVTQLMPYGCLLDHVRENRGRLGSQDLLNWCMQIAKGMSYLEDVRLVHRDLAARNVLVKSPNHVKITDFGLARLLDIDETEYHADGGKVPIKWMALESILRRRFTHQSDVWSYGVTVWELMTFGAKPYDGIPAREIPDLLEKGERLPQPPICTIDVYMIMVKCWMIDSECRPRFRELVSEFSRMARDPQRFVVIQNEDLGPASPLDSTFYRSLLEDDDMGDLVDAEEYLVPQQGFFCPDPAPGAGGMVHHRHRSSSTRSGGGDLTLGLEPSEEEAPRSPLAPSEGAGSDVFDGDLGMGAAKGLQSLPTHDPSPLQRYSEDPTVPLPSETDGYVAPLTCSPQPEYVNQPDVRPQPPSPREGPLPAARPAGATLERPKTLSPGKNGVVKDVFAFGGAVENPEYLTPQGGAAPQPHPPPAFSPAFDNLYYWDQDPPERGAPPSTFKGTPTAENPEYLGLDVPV
p38α, sequence (Q16539 whole entry): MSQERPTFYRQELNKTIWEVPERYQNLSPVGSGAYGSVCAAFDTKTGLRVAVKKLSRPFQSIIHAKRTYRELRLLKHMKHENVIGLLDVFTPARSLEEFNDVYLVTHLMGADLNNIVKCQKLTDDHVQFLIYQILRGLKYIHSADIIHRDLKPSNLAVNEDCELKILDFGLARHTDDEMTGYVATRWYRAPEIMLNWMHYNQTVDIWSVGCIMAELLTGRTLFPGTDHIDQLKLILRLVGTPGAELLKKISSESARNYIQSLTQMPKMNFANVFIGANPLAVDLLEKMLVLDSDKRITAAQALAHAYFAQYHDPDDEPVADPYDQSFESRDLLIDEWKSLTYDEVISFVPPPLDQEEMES
EGF Receptor, sequence (P00533 25-1210): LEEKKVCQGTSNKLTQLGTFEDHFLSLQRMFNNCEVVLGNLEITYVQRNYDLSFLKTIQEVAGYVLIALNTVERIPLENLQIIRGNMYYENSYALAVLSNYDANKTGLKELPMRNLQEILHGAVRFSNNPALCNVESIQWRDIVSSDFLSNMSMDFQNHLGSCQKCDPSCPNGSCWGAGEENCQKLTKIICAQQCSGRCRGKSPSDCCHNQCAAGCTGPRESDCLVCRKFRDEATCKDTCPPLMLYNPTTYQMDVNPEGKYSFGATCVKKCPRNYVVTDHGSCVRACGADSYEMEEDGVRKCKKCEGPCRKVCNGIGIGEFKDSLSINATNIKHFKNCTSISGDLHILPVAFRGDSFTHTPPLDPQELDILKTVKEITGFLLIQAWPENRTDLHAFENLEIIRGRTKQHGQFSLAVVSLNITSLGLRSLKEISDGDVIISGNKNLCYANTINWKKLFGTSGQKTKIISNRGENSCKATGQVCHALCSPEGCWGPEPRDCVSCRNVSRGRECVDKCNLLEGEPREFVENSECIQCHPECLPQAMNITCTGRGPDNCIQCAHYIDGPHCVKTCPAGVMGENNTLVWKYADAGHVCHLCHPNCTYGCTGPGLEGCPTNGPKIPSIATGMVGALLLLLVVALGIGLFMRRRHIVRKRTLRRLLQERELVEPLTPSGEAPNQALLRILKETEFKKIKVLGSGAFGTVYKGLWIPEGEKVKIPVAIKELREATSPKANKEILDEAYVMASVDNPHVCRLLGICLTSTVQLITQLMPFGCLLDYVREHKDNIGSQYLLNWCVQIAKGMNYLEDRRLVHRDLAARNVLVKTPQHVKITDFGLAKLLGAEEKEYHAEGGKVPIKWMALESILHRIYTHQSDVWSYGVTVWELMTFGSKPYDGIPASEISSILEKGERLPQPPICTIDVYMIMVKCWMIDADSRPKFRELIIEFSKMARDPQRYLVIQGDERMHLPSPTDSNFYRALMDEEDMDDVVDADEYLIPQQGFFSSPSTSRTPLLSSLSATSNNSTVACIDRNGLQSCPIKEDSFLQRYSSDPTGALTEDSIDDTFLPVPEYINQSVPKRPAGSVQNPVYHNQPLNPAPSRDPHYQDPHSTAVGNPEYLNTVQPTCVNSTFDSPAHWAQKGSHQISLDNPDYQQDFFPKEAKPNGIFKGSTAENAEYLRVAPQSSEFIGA
p70^S6, sequence (P23443 24-525 limits assumed): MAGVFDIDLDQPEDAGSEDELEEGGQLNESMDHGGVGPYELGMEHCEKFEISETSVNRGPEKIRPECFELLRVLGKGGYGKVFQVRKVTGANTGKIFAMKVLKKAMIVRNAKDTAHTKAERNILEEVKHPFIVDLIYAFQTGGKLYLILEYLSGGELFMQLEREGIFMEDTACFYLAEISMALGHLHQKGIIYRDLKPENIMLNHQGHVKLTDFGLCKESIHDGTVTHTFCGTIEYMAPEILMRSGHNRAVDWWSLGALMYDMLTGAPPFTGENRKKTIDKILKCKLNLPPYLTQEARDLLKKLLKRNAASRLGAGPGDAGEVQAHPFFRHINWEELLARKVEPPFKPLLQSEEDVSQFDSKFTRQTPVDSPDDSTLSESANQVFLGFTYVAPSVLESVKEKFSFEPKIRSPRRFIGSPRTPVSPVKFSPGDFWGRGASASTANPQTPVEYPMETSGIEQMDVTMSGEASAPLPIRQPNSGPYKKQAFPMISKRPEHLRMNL
ERK1, sequence (P27361 whole entry, species assumed): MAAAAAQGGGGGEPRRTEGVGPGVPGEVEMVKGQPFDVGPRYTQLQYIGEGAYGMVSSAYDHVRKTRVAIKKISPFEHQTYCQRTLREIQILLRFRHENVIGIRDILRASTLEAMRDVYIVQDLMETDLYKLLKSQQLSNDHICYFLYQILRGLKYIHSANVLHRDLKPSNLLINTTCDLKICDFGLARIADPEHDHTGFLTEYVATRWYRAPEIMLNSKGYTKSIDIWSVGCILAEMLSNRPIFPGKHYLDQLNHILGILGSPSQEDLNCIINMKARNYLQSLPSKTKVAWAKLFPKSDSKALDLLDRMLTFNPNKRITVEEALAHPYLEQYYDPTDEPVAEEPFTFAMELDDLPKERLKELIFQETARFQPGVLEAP

Cc1cc(C(C)Nc2ccccc2)c2nc(N3CCOCC3)cc(=O)n2c1 (racemic) [TGX-221, (±)-7-methyl-2-morpholin-4-yl-9-(1-phenylaminoethyl)-pyrido[1,2-a]pyrimidin-4-one]
IC50 (p38α): > 10 µM
IC50 (p110γ-PI3K; Table I, read-out: inhibitory concentration, gamma): > 5 µM
IC50 (p110γ-PI3K; read-out: IC50 (μM), p110γ-PI3K): > 10 µM
IC50 (PKA Non-selective): > 10 µM
IC50 (washed platelets [1]): 0.05 to 0.1 µM
IC50 (PKC Non-selective): > 10 µM
IC50 (Cdk2/cyclin A): > 10 µM
IC50 (Casein Kinase 2): > 10 µM
IC50 (HER2 Receptor): > 10 µM
IC50 (PI4K): > 10 µM
inhibitory effect on PI4 kinase (PI4K; in words): minimal inhibitory effect
IC50 (CaMK): > 10 µM
IC50 (p70^S6): > 10 µM
bleeding time (rat tail bleeding time; TGX-221 2 mg/kg i.v. in combination with either clopidogrel or aspirin): did not affect bleeding time
prolonged bleeding time caused by co-administered agents (rat tail bleeding time; TGX-221 2 mg/kg i.v. with aspirin 200 mg/kg p.o.+heparin 100 U/kg i.v.): did not exacerbate
prolonged bleeding time caused by co-administered agents (rat tail bleeding time; TGX-221 2 mg/kg i.v. with clopidogrel 10 mg/kg p.o.+heparin 100 U/kg i.v.): did not exacerbate
rat tail bleeding time (rat tail bleeding time; TGX-221 20 mg/kg i.v. alone): unaffected
rat tail bleeding time (rat tail bleeding time; TGX-221 20 mg/kg i.v. with heparin 100 U/kg i.v.): unaffected
bleeding time (rat tail bleeding time; administered at >20 fold the minimum therapeutic concentration): did not increase bleeding time
normal haemostasis as assessed by tail or ear bleeding times (rat tail bleeding time; in words): did not adversely impact
IC50 (Insulin Receptor): > 10 µM
IC50 (ERK1): > 10 µM
IC50 (EGF Receptor): > 10 µM
γ-independent GPIb calcium signalling ([2]; 0.5 μM): did not inhibit
platelet responses to accelerated shear ([2]; vWf matrix, shear rate gradient up to 10,000 s^−1 over 1 s): Eliminates Platelet Responses to Accelerated Shear
IC50 (p110δ-PI3K): 0.1 µM
integrin αIIbβ3 activation (PAC-1 binding) (washed platelets [3]): unaffected
IC50 (Fyn): > 10 µM

From patent US7598377B2, “Inhibition of phosphoinositide 3-kinase β” (AstraZeneca AB, priority 2002, dated 2009)
